Assay results published in patent US20250074869A1, “AMINO-COMBRETASTATIN DERIVATIVE AND USE THEREOF” (priority 2020, published 2025).

Legend:
[1] = test system: human liver cancer cells Bel-7402; assay: Efficacy study in nude mouse with xenograft tumor, Bel-7402; format: in vivo; details: BALB/cA-nude mice, subcutaneous xenograft, 50 mg/kg intragastric once daily for 21 days, dosed as hydrochloride; for inhibition in vivo at 50 mg/kg: Mus musculus, Bel-7402, sc, 504 h, read-out: % tumor inhibition (D21) Bel-7402
Description: (§1) BALB/cA-nude mice aged 6 to 7 weeks were purchased from Shanghai Slac Laboratory Animal Co., Ltd. The nude mice were subcutaneously grafted with human liver cancer cells Bel-7402, colon cancer cells HT-29, gastric cancer cells SGC-7901 or non-small cell lung cancer cells A549. After the tumor grew to 100 to 250 mm^3, the animals were randomized (d0). The tumor volumes and body weights were measured twice or thrice a week, and the data were recorded. Tumor volume (V) was calculated as follows:
(§2) [formula] • wherein a and b represent length and width, respectively; T and C are the tumor volumes at the end of study; T0 and C0 are the tumor volumes at the start of study.
(§3) All samples were diluted to the desired concentration with 50% PEG400 in distilled water. The regimen was once daily for 21 days at 50 mg/kg mouse body weight through intragastric administration, and 50 mg/kg for the control. The compounds obtained in Examples 1, 3, 4, 5, 6, 7, 8, 9, 10, 11, 12, 13 and 14 and the control were prepared into corresponding hydrochloride as the dosing compounds according to the method disclosed in Example 2 to investigate their efficacy on human liver cancer cell Bel-7402, colon cancer cell HT-29, gastric cancer cell SGC-7901 or non-small cell lung cancer cell A549 xenograft tumors in nude mice and to compare the compounds with the control (prepared as in Example 16).

colon cancer cells HT-29 = assay: Efficacy study in nude mouse with xenograft tumor, HT-29; format: in vivo, human; details: BALB/cA-nude mice, subcutaneous xenograft, 50 mg/kg intragastric once daily for 21 days, dosed as hydrochloride; for inhibition in vivo at 50 mg/kg: Mus musculus, HT-29, sc, 504 h, read-out: % tumor inhibition (D21) HT-29
Description: as §1, §2, §3

[2] = test system: gastric cancer cells SGC-7901; assay: Efficacy study in nude mouse with xenograft tumor, SGC-7901; format: in vivo, human; details: BALB/cA-nude mice, subcutaneous xenograft, 50 mg/kg intragastric once daily for 21 days, dosed as hydrochloride; for inhibition in vivo at 50 mg/kg: Mus musculus, SGC-7901, sc, 504 h, read-out: % tumor inhibition (D21) SGC-7901
Description: as §1, §2, §3

[3] = test system: non-small cell lung cancer cells A549; assay: Efficacy study in nude mouse with xenograft tumor, A549; format: in vivo, human; details: BALB/cA-nude mice, subcutaneous xenograft, 50 mg/kg intragastric once daily for 21 days, dosed as hydrochloride; for inhibition in vivo at 50 mg/kg: Mus musculus, A549, sc, 504 h, read-out: % tumor inhibition (D21) A549
Description: as §1, §2, §3

Question: What does the source list for CCC(C)N(CCC(=O)Nc1cc(/C=C\c2cc(OC)c(OC)c(OC)c2)ccc1OC(F)F)C(C)CC (stereo not shown) [Example 10, (Z)-1-(3,4,5-trimethoxyphenyl)-2-((3-(bis(2-n-butyl)amino)propionamide)-4-difluoromethoxyphenyl)ethylene]?
Answer: % tumor inhibition (D21) Bel-7402 [1]: 86%; % tumor inhibition (D21) HT-29 (colon cancer cells HT-29): 81%; % tumor inhibition (D21) SGC-7901 [2]: 73%; % tumor inhibition (D21) A549 [3]: 60%

Question: With CCCN(CCC)CCC(=O)Nc1cc(/C=C\c2cc(OC)c(OC)c(OC)c2)ccc1OCC(F)(F)F [Example 7, (Z)-1-(3,4,5-trimethoxyphenyl)-2-((3-(bis(2-n-propyl)amino)propionamide)-4-trifluoroethoxyphenyl) ethylene] as the compound, how does the inhibition in vivo at 50 mg/kg [1] read?
Answer: 81%

Question: And the inhibition in vivo at 50 mg/kg (colon cancer cells HT-29)?
Answer: 79%

Question: And the inhibition in vivo at 50 mg/kg [2]?
Answer: 65%

Question: What about the inhibition in vivo at 50 mg/kg [3] of the same compound?
Answer: 66%

Question: What does the source list for CCCCN(CCCC)CCC(=O)Nc1cc(/C=C\c2cc(OC)c(OC)c(OC)c2)ccc1OC [Example 6, (Z)-1-(3,4,5-trimethoxyphenyl)-2-((3-(bis(2-n-butyl)amino)propionamide)-4-methoxyphenyl)ethylene]?
Answer: inhibition in vivo at 50 mg/kg [1]: 89%; inhibition in vivo at 50 mg/kg (colon cancer cells HT-29): 90%; inhibition in vivo at 50 mg/kg [2]: 81%; inhibition in vivo at 50 mg/kg [3]: 62%

Question: Which results are given for CCCN(CCC)CCC(=O)Nc1cc(/C=C\c2cc(OC)c(OC)c(OC)c2)ccc1OCC [Example 1]?
Answer: inhibition in vivo at 50 mg/kg [1]: 92%; inhibition in vivo at 50 mg/kg (colon cancer cells HT-29): 93%; inhibition in vivo at 50 mg/kg [2]: 82%; inhibition in vivo at 50 mg/kg [3]: 69%

Question: With CCCN(CCC)CCC(=O)Nc1cc(/C=C\c2cc(OC)c(OC)c(OC)c2)ccc1OC(F)F [Example 8, (Z)-1-(3,4,5-trimethoxyphenyl)-2-((3-(bis(2-n-propyl)amino)propionamide)-4-difluoromethoxyphenyl)ethylene] as the compound, how does the inhibition in vivo at 50 mg/kg [1] read?
Answer: 90%

Question: What about the inhibition in vivo at 50 mg/kg (colon cancer cells HT-29) of the same compound?
Answer: 88%

Question: And the inhibition in vivo at 50 mg/kg [2]?
Answer: 71%

Question: What about the inhibition in vivo at 50 mg/kg [3] of the same compound?
Answer: 67%

Question: Which inhibition in vivo at 50 mg/kg [1] does the source give for COc1ccc(/C=C\c2cc(OC)c(OC)c(OC)c2)cc1NC(=O)CCN(CCO)CCO [Example 12, (Z)-1-(3,4,5-trimethoxyphenyl)-2-((3-(bis(2-hydroxyethyl)amino)propionamide)-4-methoxyphenyl)ethylene] here?
Answer: 79%

Question: And the inhibition in vivo at 50 mg/kg (colon cancer cells HT-29)?
Answer: 79%

Question: And the inhibition in vivo at 50 mg/kg [2]?
Answer: 77%

Question: What about the inhibition in vivo at 50 mg/kg [3] of the same compound?
Answer: 58%

Question: What does the source list for CCCCN(CCCC)CCC(=O)Nc1cc(/C=C\c2cc(OC)c(OC)c(OC)c2)ccc1OCC(F)(F)F [Example 9, (Z)-1-(3,4,5-trimethoxyphenyl)-2-((3-(bis(2-n-butyl)amino)propionamide)-4-trifluoroethoxyphenyl)ethylene]?
Answer: inhibition in vivo at 50 mg/kg [1]: 79%; inhibition in vivo at 50 mg/kg (colon cancer cells HT-29): 85%; inhibition in vivo at 50 mg/kg [2]: 80%; inhibition in vivo at 50 mg/kg [3]: 61%

Question: CCOc1ccc(/C=C\c2cc(OC)c(OC)c(OC)c2)cc1NC(=O)CCNCC(F)F [Example 13, (Z)-1-(3,4,5-trimethoxyphenyl)-2-((3-(2,2-difluoroethylamino)propionamide)-4-ethoxyphenyl)ethylene] was tested. Which inhibition in vivo at 50 mg/kg [1] did it give?
Answer: 82%

Question: What about the inhibition in vivo at 50 mg/kg (colon cancer cells HT-29) of the same compound?
Answer: 77%

Question: What about the inhibition in vivo at 50 mg/kg [2] of the same compound?
Answer: 72%

Question: And the inhibition in vivo at 50 mg/kg [3]?
Answer: 63%

Question: For CCOc1ccc(/C=C\c2cc(OC)c(OC)c(OC)c2)cc1NC(=O)CCNCC(OC)OC [Example 14, (Z)-1-(3,4,5-trimethoxyphenyl)-2-((3-(2,2-dimethoxyethylamino)propionamide)-4-ethoxyphenyl)ethylene], which inhibition in vivo at 50 mg/kg [1] is on record?
Answer: 82%

Question: What about the inhibition in vivo at 50 mg/kg (colon cancer cells HT-29) of the same compound?
Answer: 71%

Question: What about the inhibition in vivo at 50 mg/kg [2] of the same compound?
Answer: 80%

Question: And the inhibition in vivo at 50 mg/kg [3]?
Answer: 66%

Question: Which results are given for CCOc1ccc(/C=C\c2cc(OC)c(OC)c(OC)c2)cc1NC(=O)CCN(CCO)CCO [Example 11, (Z)-1-(3,4,5-trimethoxyphenyl)-2-((3-(bis(2-hydroxyethyl)amino)propionamide)-4-ethoxyphenyl)ethylene]?
Answer: inhibition in vivo at 50 mg/kg [1]: 88%; inhibition in vivo at 50 mg/kg (colon cancer cells HT-29): 89%; inhibition in vivo at 50 mg/kg [2]: 65%; inhibition in vivo at 50 mg/kg [3]: 63%
